Where two headings read alike, the source gives them in different places.
Assays:
HRV1A [1] = conditions: for relative infection: n=2
HRV1A [2] = assay: microbe, parasite or virus in culture; conditions: Human rhinovirus sp., M-HeLa, 7 h; for activity at 0.03 µM: read-out: HRV1A infection (dsRNA), 0.03 µM; for activity at 0.1 µM: read-out: HRV1A infection (dsRNA), 0.10 µM; for activity at 0.31 µM: read-out: HRV1A infection (dsRNA), 0.31 µM; for activity at 0.93 µM: read-out: HRV1A infection (dsRNA), 0.93 µM; for activity at 2.78 µM: read-out: HRV1A infection (dsRNA), 2.78 µM; for activity at 8.33 µM: read-out: HRV1A infection (dsRNA), 8.33 µM; for activity at 25 µM: read-out: HRV1A infection (dsRNA), 25.00 µM
HRV14 = conditions: n=2
CVB3 = conditions: n=2
HRV16 [3] = conditions: n=2
HRV16 [4] = assay: microbe, parasite or virus in culture; conditions: Human rhinovirus sp., HRV16, HeLa, read-out: IC50 (HRV16)
CVA21 = conditions: n=2
[5] = test system: influenza virus (strain A/Puerto Rico/8/34/H1N1 depicted PR8); assay: microbe, parasite or virus in culture; conditions: unidentified influenza virus, A549, read-out: IC50 (PR8)
CVB4 = conditions: n=2
HRV2 = conditions: n=2

In the case of COc1ccc(Cl)cc1C(=O)Nc1cc([N+](=O)[O-])ccc1Cl [TVB-1330], the “antiviral activity against HRV1A (structure-activity study, in words)” value (from here on “antiviral activity against HRV1A”) (HRV1A [1]) is reported as “reduced antiviral efficacy”, the activity at 0.03 µM (HRV1A [2]) is reported as 101% and the activity at 0.1 µM (HRV1A [2]) is reported as 103%. It also gave an activity at 0.31 µM (HRV1A [2]) of 99%, an activity at 0.93 µM (HRV1A [2]) of 97% and an activity at 2.78 µM (HRV1A [2]) of 101%. The activity at 8.33 µM (HRV1A [2]) was 105% and the activity at 25 µM (HRV1A [2]) was 111%.

CCOc1ccccc1C(=O)Nc1ccc(Cl)cc1Cl [TVB-1331] was tested, and the “antiviral activity against HRV1A” value (HRV1A [1]) was “eliminated antiviral activity”, the activity at 0.03 µM (HRV1A [2]) was 119% and the activity at 0.1 µM (HRV1A [2]) was 118%. It also gave an activity at 0.31 µM (HRV1A [2]) of 112%, an activity at 0.93 µM (HRV1A [2]) of 107% and an activity at 2.78 µM (HRV1A [2]) of 108%. The activity at 8.33 µM (HRV1A [2]) was 106% and the activity at 25 µM (HRV1A [2]) was 113%.

For COc1ccccc1C(=O)Nc1ccc([N+](=O)[O-])cc1Cl [TVB-1333], the “antiviral activity against HRV1A” value (HRV1A [1]) was “eliminated antiviral activity”, the activity at 0.03 µM (HRV1A [2]) was 112% and the activity at 0.1 µM (HRV1A [2]) was 99%. For the same compound, the activity at 0.31 µM (HRV1A [2]) was 107%, the activity at 0.93 µM (HRV1A [2]) was 92% and the activity at 2.78 µM (HRV1A [2]) was 84%. It also gave an activity at 8.33 µM (HRV1A [2]) of 157% and an activity at 25 µM (HRV1A [2]) of 207%.

With Nc1ccc(NC(=O)c2cc(Cl)ccc2O)c(Cl)c1 [TVB-1335] the “antiviral activity against HRV1A” value (HRV1A [1]) was “eliminated antiviral activity”, the activity at 0.03 µM (HRV1A [2]) was 109% and the activity at 0.1 µM (HRV1A [2]) was 102%. For the same compound, the activity at 0.31 µM (HRV1A [2]) was 103%, the activity at 0.93 µM (HRV1A [2]) was 105% and the activity at 2.78 µM (HRV1A [2]) was 98%. For the same compound, the activity at 8.33 µM (HRV1A [2]) was 96% and the activity at 25 µM (HRV1A [2]) was 104%.

With O=C(Nc1ccc(NS(=O)(=O)c2ccccc2)cc1Cl)c1cc(Cl)ccc1O [TVB-1336] the “antiviral activity against HRV1A” value (HRV1A [1]) was “eliminated antiviral activity”, the activity at 0.03 µM (HRV1A [2]) was 102% and the activity at 0.1 µM (HRV1A [2]) was 97%. It also gave an activity at 0.31 µM (HRV1A [2]) of 105%, an activity at 0.93 µM (HRV1A [2]) of 105% and an activity at 2.78 µM (HRV1A [2]) of 104%. It also gave an activity at 8.33 µM (HRV1A [2]) of 105% and an activity at 25 µM (HRV1A [2]) of 103%.

With COc1ccc(Br)cc1C(=O)Nc1cc([N+](=O)[O-])ccc1Cl [TVB-1337] the “antiviral activity against HRV1A” value (HRV1A [1]) was “reduced antiviral efficacy”, the activity at 0.03 µM (HRV1A [2]) was 112% and the activity at 0.1 µM (HRV1A [2]) was 104%. The activity at 0.31 µM (HRV1A [2]) was 107%, the activity at 0.93 µM (HRV1A [2]) was 104% and the activity at 2.78 µM (HRV1A [2]) was 105%. It also gave an activity at 8.33 µM (HRV1A [2]) of 111% and an activity at 25 µM (HRV1A [2]) of 117%.

CS(=O)(=O)c1ccc(NC(=O)c2cc(Cl)ccc2O)c(Cl)c1 [TVB-1338] gave a relative infection (HRV14; 0.1 µM) of 1.07, a relative infection (HRV14; 0.3 µM) of 1.12 and a relative infection (HRV14; 0.9 µM) of 1.20. It also gave a relative infection (HRV14; 2.8 µM) of 1.17, a relative infection (HRV14; 8.3 µM) of 1.13 and a relative infection (HRV14; 25.0 µM) of 0.62. For the same compound, the relative infection (CVB3; 0.1 µM) was 0.97, the relative infection (CVB3; 0.3 µM) was 1.10 and the relative infection (CVB3; 0.9 µM) was 1.09. The relative infection (CVB3; 2.8 µM) was 1.05, the relative infection (CVB3; 8.3 µM) was 0.94 and the relative infection (CVB3; 25.0 µM) was 0.94. It also gave a relative infection (HRV16 [3]; 0.1 µM) of 1.09, a relative infection (HRV16 [3]; 0.3 µM) of 1.11 and a relative infection (HRV16 [3]; 0.9 µM) of 1.15. It also gave a relative infection (HRV16 [3]; 2.8 µM) of 1.13, a relative infection (HRV16 [3]; 8.3 µM) of 1.02 and a relative infection (HRV16 [3]; 25.0 µM) of 0.67. The “antiviral activity against HRV1A” value (HRV1A [1]) was “eliminated antiviral activity”, the relative infection (HRV1A [1]; 0.1 µM) was 1.02 and the relative infection (HRV1A [1]; 0.3 µM) was 0.96. It also gave a relative infection (HRV1A [1]; 0.9 µM) of 1.07, a relative infection (HRV1A [1]; 2.8 µM) of 1.12 and a relative infection (HRV1A [1]; 8.3 µM) of 1.11. It also gave a relative infection (HRV1A [1]; 25.0 µM) of 0.95, an IC50 (HRV16 [4]) of ~26.9 µM and a relative infection (CVA21; 0.1 µM) of 1.02. It also gave a relative infection (CVA21; 0.3 µM) of 1.05, a relative infection (CVA21; 0.9 µM) of 1.03 and a relative infection (CVA21; 2.8 µM) of 1.05. It also gave a relative infection (CVA21; 8.3 µM) of 1.06, a relative infection (CVA21; 25.0 µM) of 0.81 and an IC50 [5] of 42.9 µM. It also gave a relative infection (CVB4; 0.1 µM) of 1.00, a relative infection (CVB4; 0.3 µM) of 1.02 and a relative infection (CVB4; 0.9 µM) of 1.06. For the same compound, the relative infection (CVB4; 2.8 µM) was 1.15, the relative infection (CVB4; 8.3 µM) was 1.02 and the relative infection (CVB4; 25.0 µM) was 0.51. It also gave a relative infection (HRV2; 0.1 µM) of 1.05, a relative infection (HRV2; 0.3 µM) of 1.11 and a relative infection (HRV2; 0.9 µM) of 1.12. It also gave a relative infection (HRV2; 2.8 µM) of 1.13, a relative infection (HRV2; 8.3 µM) of 1.12 and a relative infection (HRV2; 25.0 µM) of 0.76. It also gave an activity at 0.03 µM (HRV1A [2]) of 123%, an activity at 0.1 µM (HRV1A [2]) of 106% and an activity at 0.31 µM (HRV1A [2]) of 109%. For the same compound, the activity at 0.93 µM (HRV1A [2]) was 105%, the activity at 2.78 µM (HRV1A [2]) was 106% and the activity at 8.33 µM (HRV1A [2]) was 111%. For the same compound, the activity at 25 µM (HRV1A [2]) was 112%.

Reference: publication PMC3486884 (PLoS Pathogens, 2012)
